Patent publication US20170242015A1, “MAP3K8 AS A MARKER FOR SELECTING A PATIENT AFFECTED WITH AN OVARIAN CANCER FOR A TREATMENT WITH A MEK INHIBITOR” (INSTITUT CURIE, priority 2014, published 2017)

Assays:
high-MAP3K8 PDX model [1] = experiment: Efficacy study in patient-derived xenograft, high-MAP3K8 PDX model; type: in vivo, mouse; conditions: for tumor growth inhibition (TGI): per os 5 times a week for 4 weeks, AZD6244 50 mg/kg, MEK162 25 mg/kg; for tumor growth: treated vs untreated
Method: (§1) Grafting experiments were performed by subcutaneous injection of 2.7×10^6 exponentially growing SKOV3 stable cell lines into each flank of 6-week-old female Swiss nude mice (at least five mice per group). Patient derived xenograft (PDX) models of EOC tumors were established at the Curie Institute with patient consent (Paris, France). For efficacy studies in PDX models, at least 8 mice per group were treated per os 5 times a week for 4 weeks either left untreated (Ctrl) or treated with the following MEK inhibitors AZD6244 at 50 mg/kg, (Selleckchem #S100817) or MEK162 25 mg/kg (Active Biochem #A-1128) both diluted into 2% DMSO, 10% 2-Hydroxypropyl-beta-cyclodextrin, 5% glucose in PBS. Tumor growth was evaluated by measuring two perpendicular diameters of tumors with a caliper twice a week. Individual tumor volumes were calculated as (V)=a×b2/2, with a being the major diameter, and b the minor one. For each tumor, V was reported to the initial volume as relative tumor volume (RTV). Means (and s.e.m) of RTV in the same treatment group were calculated, and growth curves were established as a function of time. The tumor growth inhibition (TGI) was calculated using the following formula: 100−100×([…]). Curie Institute ethical committee approved all experiments.

low-MAP3K8 PDX model = experiment: Efficacy study in patient-derived xenograft, low-MAP3K8 PDX model; type: in vivo, mouse; conditions: for tumor growth inhibition (TGI): per os 5 times a week for 4 weeks, AZD6244 50 mg/kg, MEK162 25 mg/kg; for tumor growth: treated vs untreated
Method: as §1

high-MAP3K8 PDX model [2] = experiment: Lung metastasis detection in PDX by RT-qPCR for human Alu sequences; type: in vivo, mouse; conditions: compared to low-MAP3K8 PDX model
SKOV3 cells [3] = experiment: Growth kinetics of SKOV3 cells (living cells counted by trypan blue exclusion); type: cell-based, human
Method: (§2) The human epithelial ovarian cancer cell line SKOV3 and the SKOV3 stable cell lines were propagated in DMEM (Gibco) supplemented with 10% fetal bovine serum (FBS, PAA), penicillin and streptomycin (Gibco). 1 μg/mL puromycin was added only for SKOV3 stable cell lines. For SKOV3 stable cell lines, 10% serum stimulation was performed after overnight serum starvation for the indicated times. SKOV3 cells were plated and immediately treated or not with 5 μM MAP3K8 kinase inhibitor (KI, Calbiochem #616373) for the indicated times. The number of living cells was measured by trypan blue exclusion using Vi-Cell analyzer (Beckman Coulter). Cell cycle distributions were performed on ethanol-fixed cells, stained with propidium iodide and analyzed by flow cytometry. Flow cytometry data were acquired using CellQuest Pro (Becton Dickinson) software on the FACS LSRII machine (Becton Dickinson) and were analyzed using ModfitLT (Verity) software.

SKOV3 cells [4] = experiment: Cell cycle analysis by flow cytometry (propidium iodide); type: cell-based, human; conditions: KI treatment vs untreated control cells
Method: as §2

SKOV3 cells [5] = experiment: Transwell migration assay; type: cell-based, human; conditions: KI treatment, 5 h
Method: (§3) 12 wells cell culture insert, and 24 wells Transwell BioCoat™ growth factor reduced Matrigel™ invasion chambers (BD Biosciences, […]) were used for migration and invasion assays, respectively. After overnight serum starvation, cells were plated to the upper side of the Transwell device, at least in duplicates, in serum free medium, while the lower well contained regular 10% FBS culture medium in order to create an FBS gradient. The inventors plated 80,000 cells for migration assay and ended the experiment 5 h later. For invasion assay, the inventors plated 50,000 and stopped the experiment 24 h later. At the end of the experiment, the remaining cells in the upper side of the Transwell device were removed. Migrating and invading cells at the bottom side of the Transwell device were fixed and stained with crystal violet for 30 minutes and then counted in the central field (×2.5 objective, Zeiss Axioplan microscope, AxioCamERc 5s).

SKOV3 cells [6] = experiment: Transwell BioCoat Matrigel invasion assay; type: cell-based, human; conditions: KI treatment, 24 h
Method: as §3

MEK = experiment: Western blot of serum-induced MEK phosphorylation in SKOV3 cells; type: cell-based, human; conditions: SKOV3, KI 5 μM or 10 μM 1 h prior to 15 min 10% serum stimulation
Method: (§4) After overnight serum starvation (—FBS), SKOV3 cells and SKOV3 stable cell lines were stimulated with 10% serum for 15 minutes (+FBS). SKOV3 cell line was treated or not with 5 μM or 10 μM MAP3K8 kinase inhibitor as indicated (KI_5 μM or KI_10 μM) for 1 h prior to serum stimulation. After treatment, cells were washed once with cold PBS and scraped on ice with lysis buffer (50 mM Tris-HCl pH 7.5, 1 mM EDTA, 1 mM EGTA, 1% triton X-100, 1 mM Na3VO4, 50mMNaF, 0.27M sucrose, 0.1% β-mercaptoethanol) supplemented with EDTA-free protease inhibitor cocktail tablet (Roche #1836170). For immunoprecipitation (IP), 4×10^6 SKOV3 cells were plated into 10 cm petri dish. […] The protein concentration of the supernatant was determined using the Bio-Rad Dc Protein Assay Kit according to the manufacturer's instructions (Bio-Rad Laboratories). […]
(§5) For western blot analysis, samples were loaded onto homemade or precast 10% polyacrylamide gels (Invitrogen). […] Specific binding of antibodies was detected using appropriate peroxidase-conjugated secondary antibodies (Jackson ImmunoResearch Laboratories #115-035-003 and 115-035-045), and was visualized by enhanced chemiluminescence detection (Western Lightning® Plus-ECL, PerkinElmer). […]

ERK = experiment: Western blot of serum-induced ERK phosphorylation in SKOV3 cells; type: cell-based, human; conditions: SKOV3, KI 5 μM or 10 μM 1 h prior to 15 min 10% serum stimulation
Method: as §4, §5

p38MAPK = experiment: Western blot of serum-induced p38MAPK phosphorylation in SKOV3 cells; type: cell-based, human; conditions: SKOV3, KI 5 μM or 10 μM 1 h prior to 15 min 10% serum stimulation
Method: as §4, §5

NF-κB = experiment: Western blot of serum-induced NF-κB phosphorylation in SKOV3 cells; type: cell-based, human; conditions: SKOV3, KI 5 μM or 10 μM 1 h prior to 15 min 10% serum stimulation
Method: as §4, §5

JNK = experiment: Western blot of JNK phosphorylation in SKOV3 cells; type: cell-based, human; conditions: SKOV3, KI 5 μM or 10 μM 1 h prior to 15 min 10% serum stimulation; not significant
Method: as §4, §5

SMILES | tumor growth inhibition (TGI) (high-MAP3K8 PDX model [1]) [%] | tumor growth (high-MAP3K8 PDX model [1]) | tumor growth inhibition (TGI) (low-MAP3K8 PDX model) [%] | tumor growth (low-MAP3K8 PDX model) | lung metastatic incidence (high-MAP3K8 PDX model [2]) | total number of cells (SKOV3 cells [3]; 5 μM KI vs untreated) | cell viability (SKOV3 cells [3]; KI treatment) | cell doubling time (SKOV3 cells [3]; KI treatment vs untreated) | percentage of cells in G1 phase (SKOV3 cells [4]) | cell migration (SKOV3 cells [5]) | cell invasion (SKOV3 cells [6]) | serum-induced MEK phosphorylation (MEK) | serum-induced ERK phosphorylation (ERK) | serum-induced p38MAPK phosphorylation (p38MAPK) | serum-induced NF-κB phosphorylation (NF-κB) | JNK phosphorylation (JNK)
Cn1cnc2c(F)c(Nc3ccc(Br)cc3Cl)c(C(=O)NOCCO)cc21 [AZD6244] | ~60 | markedly reduced tumor growth | 22 | much less impact | significantly reduced |  |  |  |  |  |  |  |  |  |  | 
N#Cc1cnc2cnc(NCc3cccnc3)cc2c1Nc1ccc(F)c(Cl)c1 [KI] |  |  |  |  |  | reduced the total number of cells | without any impact on cell viability | increase in cell doubling time | significant increase | significantly reduced cell migration | inhibited | significantly reduced | significantly reduced | not affected | not affected | slight decrease
Cn1cnc2c(F)c(Nc3ccc(Br)cc3F)c(C(=O)NOCCO)cc21 [MEK162] | ~60 | markedly reduced tumor growth | 22 | much less impact | significantly reduced |  |  |  |  |  |  |  |  |  |  | 
